Several values for one entry are separate records, joined by “and”; a condition that tells them apart may be missing. Identical values can stand only once. Inconclusive results and toxic doses are left out.
Test system: P388 leukemia ip, CD2F1 mice, survival T/C
Assay: NCI In Vivo Anticancer Drug Screen. Data for tumor model P388 Leukemia (intraperitoneal) in CD2F1 (CDF1) mice
Settings: endpoint: median survival time, higher = longer survival
How it was run: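 Mice carrying the transplanted tumor received test compound or vehicle. Survival was recorded in each group, and the value is the treated-group measurement divided by that of the vehicle-treated control group.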

[1] = dose: 50.0 mg/kg/injection, schedule: Q01DX005 (ip), vehicle: saline
[2] = dose: 100.0 mg/kg/injection, schedule: Q01DX005 (ip), vehicle: saline
[3] = dose: 200.0 mg/kg/injection, schedule: Q01DX005 (ip), vehicle: saline
[4] = dose: 100.0 mg/kg/injection, schedule: Q04DX003 (ip), vehicle: Klucel (hydroxypropylcellulose) (HPC)
[5] = dose: 200.0 mg/kg/injection, schedule: Q04DX003 (ip), vehicle: Klucel (hydroxypropylcellulose) (HPC)
[6] = dose: 50.0 mg/kg/injection, schedule: Q01DX009 (ip), vehicle: Klucel (hydroxypropylcellulose) (HPC)
[7] = dose: 100.0 mg/kg/injection, schedule: Q01DX009 (ip), vehicle: Klucel (hydroxypropylcellulose) (HPC)
[8] = dose: 200.0 mg/kg/injection, schedule: Q01DX009 (ip), vehicle: Klucel (hydroxypropylcellulose) (HPC)
[9] = dose: 60.0 mg/kg/injection, schedule: Q01DX005 (ip), vehicle: saline with Tween-80
[10] = dose: 120.0 mg/kg/injection, schedule: Q01DX005 (ip), vehicle: saline with Tween-80
[11] = dose: 240.0 mg/kg/injection, schedule: Q01DX005 (ip), vehicle: saline with Tween-80
[12] = dose: 50.0 mg/kg/injection, schedule: Q01DX009 (ip), vehicle: saline
[13] = dose: 100.0 mg/kg/injection, schedule: Q01DX009 (ip), vehicle: saline
[14] = dose: 200.0 mg/kg/injection, schedule: Q01DX009 (ip), vehicle: saline
[15] = dose: 50.0 mg/kg/injection, schedule: Q01DX005 (ip), vehicle: Klucel (hydroxypropylcellulose) (HPC)
[16] = dose: 100.0 mg/kg/injection, schedule: Q01DX005 (ip), vehicle: Klucel (hydroxypropylcellulose) (HPC)
[17] = dose: 200.0 mg/kg/injection, schedule: Q01DX005 (ip), vehicle: Klucel (hydroxypropylcellulose) (HPC)
[18] = dose: 12.5 mg/kg/injection, schedule: Q01DX005 (ip), vehicle: saline
[19] = dose: 25.0 mg/kg/injection, schedule: Q01DX005 (ip), vehicle: saline
[20] = dose: 25.0 mg/kg/injection, schedule: Q01DX005 (ip), vehicle: Klucel (hydroxypropylcellulose) (HPC)

O=C(/C=C/c1ccc(OCc2ccccc2)cc1)c1ccccc1[N+](=O)[O-] was tested, and the T/C (dose: 50.0 mg/kg/injection, schedule: Q01DX009 (ip), vehicle: saline with Tween-80) was 104 % of control, the T/C (dose: 100.0 mg/kg/injection, schedule: Q01DX009 (ip), vehicle: saline with Tween-80) was 101 % of control and the T/C (dose: 200.0 mg/kg/injection, schedule: Q01DX009 (ip), vehicle: saline with Tween-80) was 92 % of control.
In the case of O=C(O)c1cc(N=Nc2ccc(-c3ccc(N=Nc4c(S(=O)(=O)O)cc5cc(Nc6ccccc6)ccc5c4O)cc3)cc2)ccc1O, the T/C [1] is reported as 107 % of control, the T/C [2] is reported as 114 % of control and the T/C [3] is reported as 112 % of control.
With C[N+]1([O-])CC[N+](C)([O-])CC1 (stereo not given) the T/C (dose: 60.0 mg/kg/injection, schedule: Q01DX005 (ip), vehicle: saline) was 103 % of control, the T/C (dose: 120.0 mg/kg/injection, schedule: Q01DX005 (ip), vehicle: saline) was 96 % of control and the T/C (dose: 240.0 mg/kg/injection, schedule: Q01DX005 (ip), vehicle: saline) was 100 % of control.
For O=C(Nc1ccc(Cl)c(Cl)c1)N1CC=CC1, the T/C [4] was 101 % of control, the T/C [5] was 96 % of control and the T/C (dose: 400.0 mg/kg/injection, schedule: Q04DX003 (ip), vehicle: Klucel (hydroxypropylcellulose) (HPC)) was 94 % of control.
O=C(CCl)c1ccc2ccc3c(c2c1)Nc1ccccc1S3 was tested, and the T/C [6] was 96 % of control, the T/C [7] was 99 % of control and the T/C [8] was 93 % of control.
With CC[PH+](CC)CC[S-].CC[PH+](CC)CC[S-].[Au+].[Au+] the T/C (dose: 2.5 mg/kg/injection, schedule: Q01DX009 (ip), vehicle: Klucel (hydroxypropylcellulose) (HPC)) was 109 % of control, the T/C (dose: 5.0 mg/kg/injection, schedule: Q01DX009 (ip), vehicle: Klucel (hydroxypropylcellulose) (HPC)) was 114 % of control and 115 % of control and the T/C (dose: 20.0 mg/kg/injection, schedule: Q01DX009 (ip), vehicle: Klucel (hydroxypropylcellulose) (HPC)) was 153 % of control. The T/C (dose: 40.0 mg/kg/injection, schedule: Q01DX009 (ip), vehicle: Klucel (hydroxypropylcellulose) (HPC)) was 87 % of control.
With CCO/C=C1/N=C(c2cc([N+](=O)[O-])cc([N+](=O)[O-])c2C)OC1=O the T/C (dose: 60.0 mg/kg/injection, schedule: Q01DX005 (ip), vehicle: saline + Tween-80 + alcohol) was 93 % of control, the T/C (dose: 120.0 mg/kg/injection, schedule: Q01DX005 (ip), vehicle: saline + Tween-80 + alcohol) was 94 % of control and the T/C (dose: 240.0 mg/kg/injection, schedule: Q01DX005 (ip), vehicle: saline + Tween-80 + alcohol) was 88 % of control.
For CC(=O)NC(Cc1cc(I)c(OC(C)=O)c(I)c1)C(C)=O (stereo not given), the T/C [6] was 101 % of control, the T/C [7] was 100 % of control and the T/C [8] was 98 % of control.
For COc1c2ccncc2c(C)c2c1[nH]c1ccccc12, the T/C (dose: 6.25 mg/kg/injection, schedule: Q04DX002 (ip), vehicle: distilled water + Tween-80) was 98 % of control, the T/C (dose: 12.5 mg/kg/injection, schedule: Q04DX002 (ip), vehicle: distilled water + Tween-80) was 94 % of control and the T/C (dose: 25.0 mg/kg/injection, schedule: Q04DX002 (ip), vehicle: distilled water + Tween-80) was 94 % of control. For the same compound, the T/C (dose: 50.0 mg/kg/injection, schedule: Q04DX002 (ip), vehicle: distilled water + Tween-80) was 89 % of control, the T/C (dose: 100.0 mg/kg/injection, schedule: Q04DX002 (ip), vehicle: distilled water + Tween-80) was 89 % of control and the T/C (dose: 200.0 mg/kg/injection, schedule: Q04DX002 (ip), vehicle: distilled water + Tween-80) was 88 % of control.
With O=C(Nc1ccc(Cl)cc1)N1c2ccccc2SC1c1ccco1 (stereo not given) the T/C (dose: 50.0 mg/kg/injection, schedule: Q01DX005 (ip), vehicle: saline with Tween-80) was 89 % of control, the T/C (dose: 100.0 mg/kg/injection, schedule: Q01DX005 (ip), vehicle: saline with Tween-80) was 88 % of control and the T/C (dose: 200.0 mg/kg/injection, schedule: Q01DX005 (ip), vehicle: saline with Tween-80) was 87 % of control.
Cc1ccc(-n2c(-c3ccc(-n4c(C)nc5ccc(Br)cc5c4=O)cc3)n[nH]c2=S)cc1 was tested, and the T/C (dose: 100.0 mg/kg/injection, schedule: Q04DX002 (ip), vehicle: Klucel (hydroxypropylcellulose) (HPC)) was 98 % of control, the T/C (dose: 200.0 mg/kg/injection, schedule: Q04DX002 (ip), vehicle: Klucel (hydroxypropylcellulose) (HPC)) was 106 % of control and the T/C (dose: 400.0 mg/kg/injection, schedule: Q04DX002 (ip), vehicle: Klucel (hydroxypropylcellulose) (HPC)) was 100 % of control.
CCCCCCOC(=O)CC1CC(C(C)=O)C1(C)C (stereo not given) was tested, and the T/C [6] was 94 % of control, the T/C [7] was 106 % of control and the T/C [8] was 109 % of control. The T/C (dose: 400.0 mg/kg/injection, schedule: Q01DX009 (ip), vehicle: Klucel (hydroxypropylcellulose) (HPC)) was 117 % of control.
In the case of NS(=O)(=O)c1ccc(NC(=O)C2C(=O)N(c3ccc(S(N)(=O)=O)cc3)C(=O)/C2=N/O)cc1 (stereo not given), the T/C [9] is reported as 111 % of control, the T/C [10] is reported as 110 % of control and the T/C [11] is reported as 101 % of control.
For CC1(C)OC(C(F)(F)F)(C(F)(F)F)c2cc(C(C)(C)C)ccc2S1, the T/C [9] was 98 % of control, the T/C [10] was 98 % of control and the T/C [11] was 102 % of control.
In the case of COCCC(=NC(C)(C)C)Nc1ccccc1Cl, the T/C [12] is reported as 114 % of control, the T/C [13] is reported as 113 % of control and the T/C [14] is reported as 102 % of control.
In the case of CN1NC(c2ccccc2)=C(C#N)C(=O)CC1c1ccccc1 (stereo not given), the T/C [9] is reported as 96 % of control, the T/C [10] is reported as 95 % of control and the T/C [11] is reported as 104 % of control.
NCCS(=O)(=O)O was tested, and the T/C (dose: 100.0 mg/kg/injection, schedule: Q01DX009 (ip), vehicle: water) was 90 % of control, the T/C (dose: 200.0 mg/kg/injection, schedule: Q01DX009 (ip), vehicle: water) was 86 % of control and the T/C (dose: 400.0 mg/kg/injection, schedule: Q01DX009 (ip), vehicle: water) was 86 % of control. For the same compound, the T/C (dose: 800.0 mg/kg/injection, schedule: Q01DX009 (ip), vehicle: water) was 90 % of control.
With CC1CCC=CC(=O)C1 (stereo not given) the T/C [4] was 102 % of control and the T/C [5] was 108 % of control.
In the case of CCN(CC)CCNC(=O)Cc1cccc2c(=O)cc(-c3ccccc3)oc12, the T/C [12] is reported as 108 % of control, the T/C [13] is reported as 99 % of control and the T/C [14] is reported as 97 % of control.
In the case of CC(=O)N=c1c(Br)cc(Br)c(C)n1O, the T/C [15] is reported as 93 % of control, the T/C [16] is reported as 99 % of control and the T/C [17] is reported as 102 % of control.
For COC(=O)C(=C(C)C)S(=O)c1ccccc1 (stereo not given), the T/C [18] was 102 % of control, the T/C [19] was 103 % of control and the T/C [1] was 100 % of control and 104 % of control.
With CC(=O)Nc1ccc2c(C)ccnc2c1 the T/C (dose: 50.0 mg/kg/injection, schedule: Q01DX009 (ip), vehicle: distilled water + alcohol) was 103 % of control, the T/C (dose: 100.0 mg/kg/injection, schedule: Q01DX009 (ip), vehicle: distilled water + alcohol) was 104 % of control and the T/C (dose: 200.0 mg/kg/injection, schedule: Q01DX009 (ip), vehicle: distilled water + alcohol) was 105 % of control.
For CCOC(=O)N1CCc2cc(OC)c(OC)cc2/C1=C/c1ccsc1, the T/C [15] was 105 % of control, the T/C [16] was 102 % of control and the T/C [17] was 96 % of control.
For CC1C=CC(C)N(C(N)=O)N1C(N)=O (stereo not given), the T/C (dose: 100.0 mg/kg/injection, schedule: Q01DX001 (ip), vehicle: saline with Tween-80) was 98 % of control, the T/C (dose: 200.0 mg/kg/injection, schedule: Q01DX001 (ip), vehicle: saline with Tween-80) was 100 % of control and the T/C (dose: 400.0 mg/kg/injection, schedule: Q01DX001 (ip), vehicle: saline with Tween-80) was 91 % of control.
For CCN(CCC(=O)OC)Cc1ccnc2ccccc12, the T/C [1] was 103 % of control, the T/C [2] was 113 % of control and the T/C [3] was 106 % of control.
In the case of COc1cc(NCCN(C(C)C)C(C)C)c2ncccc2c1, the T/C [18] is reported as 101 % of control, the T/C [19] is reported as 93 % of control and the T/C [1] is reported as 90 % of control and 92 % of control.
For C[P+](C)(C)C, the T/C [9] was 87 % of control and the T/C [10] was 93 % of control.
For C1CCN2CC3CC(CN4CCCC[C@@H]34)[C@@H]2C1, the T/C [20] was 100 % of control.
With COc1cc2ccc3c(c2cc1OC)CN1CCCC1C3 (stereo not given) the T/C (dose: 6.25 mg/kg/injection, schedule: Q01DX005 (ip), vehicle: Klucel (hydroxypropylcellulose) (HPC)) was 100 % of control, the T/C (dose: 12.5 mg/kg/injection, schedule: Q01DX005 (ip), vehicle: Klucel (hydroxypropylcellulose) (HPC)) was 96 % of control and the T/C [20] was 100 % of control. The T/C [15] was 105 % of control.

— PubChem BioAssay AID330 (DTP/NCI, 2004)
